Laboratory results from patent US10233205B2, “Magnetic resonance imaging contrast agent capable of detecting hydrogen peroxide and reducing reactive oxygen species” (Auburn University, priority 2015, dated 2019).
Each block holds one compound with its values, some of them ahead of it.

Assays:
[1] = Competitive binding assay with TPEN for log(K) of ligand binding to Mn(II); assay type: physicochemical
Description: The log(K) was measured via a competitive binding assay between N,N,N′,N′-tetrakis(2-pyridylmethyl)ethylenediamine (TPEN) and the ligand (L). Various amounts of TPEN were added to a solutions of the ligand in MeCN-d3 and D2O.
The log(K) for the complexation of H2qtp1 to Mn(II) was estimated through a titration with the metal-scavenging agent TPEN (N,N,N′,N′-tetrakis(2-pyridinylmethyl)ethylenediamine, log K=10.3). The ratios of free TPEN to free ligand were assessed by ^1H NMR.
Given the known log(K) of 10.3 for TPEN's binding to Mn(II), a log(K) of 10.7 was thereby assigned for the coordination of H2qtp1 to Mn(II). […] The log(K) of 10.7 is nearly identical to the 10.6 value estimated for a related ligand from our laboratory that contains a para-methylphenol group in place of the H2qtp1's quinol.

[2] = Stability in aerobic solution / to pH; assay type: physicochemical; details: pH >10
Description: Over this time, collected UV/vis spectra (FIGS. 2 & 3) display changes in the region between 200 nm and 300 nm which are consistent with the oxidation of the quinol to a para-quinone. Past 24 h, the solution begins to turn brown, consistent with oxidation of the manganese to Mn(III) and/or Mn(IV). For the spectrophotometric analysis, the Fe(ClO4)2 solution was added to a MeCN solution containing 0.10 mM [Mn(Hptp1)(MeCN)]^2+; the mixture was scanned at 0 min (dashed red), 30 min (dashed pink), and 60 min (dashed blue). […] At 15 h, approximately 11% of the Mn(II) has been displaced by Fe(II) as indicated by data in FIG. 3.
The stability of 3 to air and adventitious metal ions was assessed primarily by UV/vis spectroscopy. […] Complex 3, however, is susceptible to metal exchange. When equimolar amounts of 3 and Fe(ClO4)2 are mixed in MeCN, 80% of the Mn(II) is replaced by Fe(II) by 3 h.

[3] = Potentiometric pH titrations, Hyperquad model; details: for log(β): Hyperquad model, 100 mM KCl, 25° C.
Description: (§2) The speciation in water was more rigorously probed with potentiometric pH titrations. […] The quinolic protons likely deprotonate at higher pH values (pKa˜10), but we were unable to obtain the high pH data necessary to confirm this.
(§3) The data were fit to a model containing the protonated forms of the free ligand and four Mn(II) complexes with the ligand in various protonation states: [Mn(H2qtp2)], [Mn(H3qtp2)]^+, [Mn(H4qtp2)]^2+, and [Mn(H4qtp2)]^3+ (Scheme 4).

[4] = T1-weighted relaxivity (r1) on 3 T clinical MRI scanner; assay type: physicochemical; details: no oxidant; 50 mM HEPES pH 7.00, 3 T, 25° C.
Excerpt: All MRI data were collected at the Auburn University MRI Research Center (Auburn, Ala.) on a Siemens Verio open-bore 3-T MRI clinical scanner. A 15-channel knee coil was used to simultaneously image 12-26 samples. An inversion recovery (IR) sequence was used that featured a non-selective adiabatic inversion pulse followed by a slice-selective gradient recalled echo (GRE) readout after a delay period corresponding to the inversion time (TI).^1-2 The GRE was a saturation readout, such that only one line of k-space was acquired per repetition time (TR). This method was selected to maximize both the signal strength and the accuracy of the T1 estimates. Specific imaging parameters were as follows: TR was set to 4 s, TI was varied from 4.8 to 2500 ms over 37 steps, the echo time (TE) was set to 3.6 ms, the flip angle equaled 90°, averages=1, slice thickness=5 mm, field of view=140×140 mm, matrix=128×128, resulting in a pixel size of 1.1×1.1×5.0 mm. All samples were run in 50 mM solutions of HEPES in water, buffered to pH 7.0 and kept at […]. The manganese content was systematically varied from 0.10 to 1.00 mM. The inverses of the T1 values were plotted versus the concentration of Mn(II) to obtain r1 values. All reported r1 values are averages from the results of two separate series of experiments. Each series of experiments used a different batch of 1.
Image analysis was performed using custom Matlab programs (Mathworks, Natick, Mass.). The initial TI=4.8 ms image served as a baseline to determine circular region of interest (ROI) boundaries for each sample; from these, the mean pixel magnitudes for each ROI were calculated. For each of the 36 subsequent TI images, the same ROI boundaries were applied and the mean pixel magnitude calculations were repeated. This gave consistent ROI spatial definitions and a corresponding time course of magnitudes for each of the samples over all the TI time points. Each sample's complex phase was used to correct the magnitude polarity to produce a complete exponential T1 inversion recovery curve. The Nelder-Mead simplex algorithm^3 was applied to each sample's exponential curve to estimate its corresponding T1 value.
(§1) For the relaxivity measurements, all samples were run in 298 K aqueous solutions containing 50 mM HEPES buffered to pH 7.00, using a 3 T field provided by a clinical MRI scanner. The data were fit to the indicated linear equations; the y-intercepts were within error of 1/T1 measurements associated with two control samples that contained no Mn(II): (A) 10 mM H2O2 in 50 mM HEPES buffer and (B) pure 50 mM HEPES buffer (both 0.46 s^−1).
as §1, with “All” for “For the relaxivity measurements, all”, “s^−1). The oxidation of 1 by 2,3-dichloro-5,6-dicyano-1,4-benzoquinone (DDQ) occurred in CH2Cl2. After the reaction occurred, the 2,3-dichloro-5,6-dicyanoquinol product was removed via filtration, the CH2Cl2 was removed, and the sample was dissolve in HEPES buffer for MRI analysis. The other oxidation reactions occurred entirely in HEPES buffer.” for “s^−1).”
The capability of 3 to serve as a MRI contrast agent was assessed with a 3 T clinical MRI scanner. All samples were run in 298 K aqueous solutions containing 50 mM HEPES buffered to pH 7.00, using a 3 T field provided by a clinical MRI scanner. All samples were prepared under air. The oxidized samples were prepared by directly adding H2O2 to solutions of 3 in aqueous solutions buffered to pH 7.0. The oxidation reactions were allowed to proceed for 30 min at 298 K before the T1 measurements were taken. […]

[5] = conditions identical to those used for 3; cited from earlier work
Solubility in water = assay type: physicochemical; details: pure H2O

Description for physchem: as §2, §3

Compound: Oc1ccc(O)c(CN(CCN(Cc2ccccn2)Cc2ccccn2)Cc2ccccn2)c1 [Complex H2qtp1, N-(2,5-Dihydroxybenzyl)-N,N′,N′-tris(2-pyridinylmethyl)-1,2-ethanediamine]
equilibrium constant for [Mn(L)(MeCN)]^2+ + TPEN → [Mn(TPEN)]^2+ + L ([1]; in both water and MeCN): 0.4 | log(K) for the coordination of ligand to Mn(II) ([1]; titration with TPEN, 1H NMR, water and MeCN): 10.7

stability of ligand to pH [2]: degrades under basic conditions | pKa (physchem; pKL1 (free ligand pKa)): 4.47 | pKa (physchem; pKL2 (free ligand pKa)): 7.18 | log(β) [3]: 0.00
Compound: Oc1ccc(O)c(CN(CCN(Cc2ccccn2)Cc2cc(O)ccc2O)Cc2ccccn2)c1 [Complex H4qtp2, N,N′-Bis(2,5-dihydroxybenzyl)-N,N′-bis(2-pyridinylmethyl)-1,2-ethanediamine]

log(β) [3]: 7.18 (±0.03)
Compound: Oc1ccc(O)c(CN(CCN(Cc2ccccn2)Cc2cc(O)ccc2O)Cc2ccccn2)c1 [H5qtp2^+]

log(β) [3]: 11.65 (±0.05)
Compound: Oc1ccc(O)c(CN(CCN(Cc2ccccn2)Cc2cc(O)ccc2O)Cc2ccccn2)c1 [H6qtp2^2+]

Compound: O.O=C([O-])CN(CCN(CC(=O)[O-])CC(=O)[O-])CC(=O)[O-].[Mn+2] [[Mn(EDTA)(H2O)]^2−, reference compound]
r1 (T1-weighted relaxivity) [4]: 1.73 mM⁻¹ s⁻¹

Compound: O.O.O.O.O.O.[Mn+2] [[Mn(H2O)6]^2+]
r1, previously found [5]: about 5.3 mM^−1s^−1

log(β) [3]: −7.19 (±0.01) | percent formation of Mn(II) species ([3]; pH 7.0): 40.3% | percent formation of Mn(II) species ([3]; pH 7.4): 66.2%
Compound: Oc1ccc2c(c1)CN(Cc1ccccn1)CCN(Cc1ccccn1)Cc1cc(O)ccc1[O][Mn][O]2 [[Mn(H2qtp2)]]

Compound: cis-Dibromo(N,N′-bis(2,5-benzoquinone)-N,N′-bis(2-pyridinylmethyl)-1,2-ethanediamine)manganese(II) [Complex 4]
solubility in water (Solubility in water): poor and poor solubility
